The values below come from patent US20240287138A1, “CYCLIC PEPTIDES FOR INHIBITING TNF RECEPTOR 1 ACTIVITY” (Merck Sharp & Dohme LLC, priority 2023, published 2024).

pIC50, pKd: −log10 of the molar value. Read-outs that look alike come from different tables or passages of the source. Numbered stars: 1 amine (or outer) side, 2 acyl side, 3 side chain; on linkers, the order of the positions; unused ones are H or OH. Bridge positions count the residues as written; N and C are the ends. Square brackets hold non-standard residues; d marks the D form. Peptide text beside a SMILES is read from it. Trp(βS-Me,7-OMe) = COc1cccc2c([C@H](C)[C@H](N)C(=O)O)c[nH]c12; Trp(βS-Me) = C[C@@H](c1c[nH]c2ccccc12)[C@H](N)C(=O)O; Trp(7-CN) = N#Cc1cccc2c(C[C@H](N)C(=O)O)c[nH]c12; Trp(7-Cl) = N[C@@H](Cc1c[nH]c2c(Cl)cccc12)C(=O)O; Phe(3-CONH2) = NC(=O)c1cccc(C[C@H](N)C(=O)O)c1; Phe(4-CONH2) = NC(=O)c1ccc(C[C@H](N)C(=O)O)cc1; Phe(4-COOH) = N[C@@H](Cc1ccc(C(=O)O)cc1)C(=O)O; Trp(7-aza) = N[C@@H](Cc1c[nH]c2ncccc12)C(=O)O; Phe(4-CH2NH2) = NCc1ccc(C[C@H](N)C(=O)O)cc1; X23 = N[C@@H]1CCN([*:1])[C@H](C(=O)[*:2])C1; Pip(5R-OH) = O=C(O)[C@@H]1CC[C@@H](O)CN1; X1 = O=C([C@@H]1CC[C@H](N[*:1])C1)[*:2]; Nle(5,5-F2) = CC(F)(F)CC[C@H](N)C(=O)O; 2Nal = N[C@@H](Cc1ccc2ccccc2c1)C(=O)O; Pip(4-aza) = O=C(O)[C@@H]1CNCCN1; 4Pal = N[C@@H](Cc1ccncc1)C(=O)O; NMeE = CN[C@@H](CCC(=O)O)C(=O)O; dHyp = O=C(O)[C@H]1C[C@H](O)CN1; Cit = NC(=O)NCCC[C@H](N)C(=O)O; Pip = O=C(O)[C@@H]1CCCCN1; αMeS = C[C@](N)(CO)C(=O)O; Nle = CCCC[C@H](N)C(=O)O; Sar = CNCC(=O)O

The target in one assay is T1, human TNFR2 ECD protein (Homo sapiens, UniProt P20333).
T1 construct: HRV 3C protease cleavage site (C); 6His (C, cleaved yes); made in house; host or cells: Sf21 insect cells (baculovirus), secreted
T1 sequence (P20333 23-257): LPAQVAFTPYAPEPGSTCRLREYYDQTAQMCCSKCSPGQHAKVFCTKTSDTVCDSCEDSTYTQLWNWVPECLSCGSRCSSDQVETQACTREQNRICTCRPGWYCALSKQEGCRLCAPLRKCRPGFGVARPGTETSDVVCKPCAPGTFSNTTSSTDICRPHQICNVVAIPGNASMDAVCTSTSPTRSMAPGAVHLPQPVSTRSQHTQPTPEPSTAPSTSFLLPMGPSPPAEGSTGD
Briefly: SPR off-target binding (selectivity) to human TNFR2 ECD. Put shortly: (§1)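 Biotinylated avi-tagged human TNFR1 or TNFR2 ECD, expressed in Sf21 insect cells, captured on streptavidin SPR chip; peptide analytes run in 10 mM HEPES pH 7.4, 150 mM NaCl, 3 mM EDTA, 0.05% P20, 2% DMSO. kon and koff measured, affinity KA calculated.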

The target of assay [1] is T2, human TNFR1 extracellular domain (ECD) protein (Homo sapiens, UniProt P19438).
T2 construct: HRV 3C protease cleavage site (C); 6His (C, cleaved yes); made in house; host or cells: Sf21 insect cells (baculovirus), secreted
T2 sequence (P19438 30-211): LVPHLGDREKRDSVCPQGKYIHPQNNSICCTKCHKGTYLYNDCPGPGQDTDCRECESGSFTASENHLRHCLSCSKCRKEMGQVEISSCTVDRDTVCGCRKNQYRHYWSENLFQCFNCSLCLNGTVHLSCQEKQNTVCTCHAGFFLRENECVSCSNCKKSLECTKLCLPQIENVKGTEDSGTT
Briefly: SPR binding affinity to captured human TNFR1 ECD. Put shortly:
as §1

The target in assay [2] is T3, TNFα-induced NF-κB signal transduction pathway (TNFR1 signaling) in THP-1 cells (Homo sapiens, UniProt P19438).
T3 sequence (P19438 30-455): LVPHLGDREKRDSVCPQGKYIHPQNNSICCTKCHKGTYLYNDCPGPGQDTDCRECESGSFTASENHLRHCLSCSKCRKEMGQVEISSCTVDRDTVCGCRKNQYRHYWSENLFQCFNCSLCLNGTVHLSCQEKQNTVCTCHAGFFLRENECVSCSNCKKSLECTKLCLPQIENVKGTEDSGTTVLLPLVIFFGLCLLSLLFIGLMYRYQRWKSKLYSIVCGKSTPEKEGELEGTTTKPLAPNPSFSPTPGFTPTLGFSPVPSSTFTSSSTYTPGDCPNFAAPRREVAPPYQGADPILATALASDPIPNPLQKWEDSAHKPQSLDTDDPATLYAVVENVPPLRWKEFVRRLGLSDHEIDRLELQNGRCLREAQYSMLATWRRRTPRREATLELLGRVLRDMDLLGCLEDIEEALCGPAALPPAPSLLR
Briefly: THP-1 Lucia NF-κB reporter cell assay, inhibition of TNFα-induced NF-κB signaling. It is filed as cell-based. The settings on record: THP-1 NF-κB Lucia reporter cells, 10 ng/mL TNFα, 16-18 h, secreted luciferase; read-out: THP-1 IC50. The essentials: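 Read-out: secreted Lucia luciferase luminescence (QUANTI-Luc) from supernatant after 16-18 h, 37 °C, 10 ng/mL rhTNFα. Peptide pretreatment 1 h at 37 °C; 20,000 cells/well, selection antibiotics omitted. IC50 via 4-parameter logistic model against min/max controls.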

Setting [3] is: biotinylated human TNFR2 ECD on streptavidin chip, read-out: SPR hTNFR2 KD.
Where [4] appears, read: biotinylated human TNFR1 ECD on streptavidin chip, from kon and koff, read-out: SPR hTNFR1 KD.

With `C[C@@H](c1c[nH]c2ccccc12)[C@@H]1NC(=O)CN(C)C(=O)[C@H](Cc2ccc(CN)cc2)NC(=O)[C@H](Cc2ccc(C(=O)O)cc2)NC(=O)[C@](C)(CO)NC(=O)[C@H](Cc2ccc3ccccc3c2)NC(=O)[C@H](Cc2ccc(CN)cc2)NC(=O)[C@H](CC(N)=O)NC(=O)[C@H]2CCCN2C(=O)[C@H]([C@@H](C)c2c[nH]c3ccccc23)NC(=O)[C@H](CO)NC(=O)[C@H](Cc2ccc(CN)cc2)NC(=O)[C@H](CCCNC(N)=O)NC(=O)CSC[C@@H](C(N)=O)NC1=O` [SEQ ID NO. 206] ({CH2CO}-[Cit][Phe(4-CH2NH2)]S[Trp(βS-Me)][dP]N[Phe(4-CH2NH2)][2Nal][αMeS][Phe(4-COOH)][Phe(4-CH2NH2)][Sar][Trp(βS-Me)]C-NH2; thioether N-14), the pKd at human TNFR2 ECD protein (setting [3]) is less than 6.00; in assay [1] (setting [4]), 8.52. Moreover, the pIC50 in assay [2] is 6.57.

On to `CCCC[C@@H]1NC(=O)[C@@H]2CC[C@@H](C2)NC(=O)[C@H]([C@@H](C)c2c[nH]c3c(OC)cccc23)NC(=O)CN(C)C(=O)[C@H](Cc2cccc(C(N)=O)c2)NC(=O)[C@H](Cc2ccc(C(=O)O)cc2)NC(=O)[C@](C)(CO)NC(=O)[C@H](Cc2c[nH]c3c(Cl)cccc23)NC(=O)[C@H](Cc2ccncc2)NC(=O)[C@H](CC(N)=O)NC(=O)[C@H](CCC(=O)O)N(C)C(=O)[C@H](Cc2c[nH]c3ccccc23)NC(=O)[C@@H]2CCCCN2C(=O)[C@H](Cc2ccncc2)NC1=O` [SEQ ID NO. 221] (cyclo([4Pal][Pip]W[NMeE]N[4Pal][Trp(7-Cl)][αMeS][Phe(4-COOH)][Phe(3-CONH2)][Sar][Trp(βS-Me,7-OMe)][X1][Nle])), for which the results for the pKd (on human TNFR2 ECD protein (setting [3]); in assay [1] (setting [4])) were less than 6.00 and 9.85, respectively. Besides, the pIC50 in assay [2] is 9.00.

For `CCCC[C@@H]1NC(=O)[C@@H]2CC[C@@H](C2)NC(=O)[C@H]([C@@H](C)c2c[nH]c3c(OC)cccc23)NC(=O)CN(C)C(=O)[C@H](Cc2ccc(C(N)=O)cc2)NC(=O)[C@H](Cc2ccc(C(N)=O)cc2)NC(=O)[C@](C)(CO)NC(=O)[C@H](Cc2c[nH]c3c(C#N)cccc23)NC(=O)[C@H](Cc2ccc(C(=O)O)cc2)NC(=O)[C@H](CC(N)=O)NC(=O)[C@H]2C[C@H](O)CN2C(=O)[C@H](Cc2c[nH]c3ncccc23)NC(=O)[C@@H]2CC[C@@H](O)CN2C(=O)[C@H](Cc2ccncc2)NC1=O` [SEQ ID NO. 254] (cyclo([4Pal][Pip(5R-OH)][Trp(7-aza)][dHyp]N[Phe(4-COOH)][Trp(7-CN)][αMeS][Phe(4-CONH2)][Phe(4-CONH2)][Sar][Trp(βS-Me,7-OMe)][X1][Nle])), the values for the pKd (at human TNFR2 ECD protein (setting [3]); in assay [1] (setting [4])) were less than 6.00 and 10.70, respectively. The pIC50 in assay [2] is 9.40.

As for `CCCC[C@@H]1NC(=O)[C@@H]2CC[C@@H](C2)NC(=O)[C@H]([C@@H](C)c2c[nH]c3c(OC)cccc23)NC(=O)CN(C)C(=O)[C@H](Cc2ccc(CN)cc2)NC(=O)[C@H](Cc2ccc(C(=O)O)cc2)NC(=O)[C@](C)(CO)NC(=O)[C@H](Cc2c[nH]c3c(Cl)cccc23)NC(=O)[C@H](Cc2ccncc2)NC(=O)[C@H](CC(N)=O)NC(=O)[C@H](CCC(=O)O)N(C)C(=O)[C@H](Cc2c[nH]c3ccccc23)NC(=O)[C@@H]2CNCCN2C(=O)[C@H](Cc2ccncc2)NC1=O` [SEQ ID NO. 269] (cyclo([4Pal][Trp(7-Cl)][αMeS][Phe(4-COOH)][Phe(4-CH2NH2)][Sar][Trp(βS-Me,7-OMe)][X1][Nle][4Pal][Pip(4-aza)]W[NMeE]N)), the pKd at human TNFR2 ECD protein is less than 6.00; in assay [1], 10.00. For the same molecule, the pIC50 in assay [2] is 9.00.

Regarding `CCCC[C@@H]1NC(=O)CSC[C@@H](C(N)=O)NC(=O)[C@H]([C@@H](C)c2c[nH]c3c(OC)cccc23)NC(=O)CN(C)C(=O)[C@H](Cc2ccc(O)cc2)NC(=O)[C@H](Cc2ccc(C(=O)O)cc2)NC(=O)[C@](C)(CO)NC(=O)[C@H](Cc2c[nH]c3c(Cl)cccc23)NC(=O)[C@H](Cc2ccncc2)NC(=O)[C@H](CC(N)=O)NC(=O)[C@H](CCC(=O)O)N(C)C(=O)[C@H](Cc2c[nH]c3ccccc23)NC(=O)[C@@H]2C[C@H](N)CCN2C(=O)[C@H](Cc2ccncc2)NC1=O` [SEQ ID NO. 271] ({CH2CO}-[Nle][4Pal][X23]W[NMeE]N[4Pal][Trp(7-Cl)][αMeS][Phe(4-COOH)]Y[Sar][Trp(βS-Me,7-OMe)]C-NH2; thioether N-14), the figures for the pKd (at human TNFR2 ECD protein; in assay [1]) were less than 6.00 and 9.55, respectively. In assay [2], the pIC50 is 8.57.

As to `COc1cccc2c([C@H](C)[C@@H]3NC(=O)CN(C)C(=O)[C@H](Cc4ccc(O)cc4)NC(=O)[C@H](Cc4ccc(C(=O)O)cc4)NC(=O)[C@](C)(CO)NC(=O)[C@H](Cc4c[nH]c5c(Cl)cccc45)NC(=O)[C@H](Cc4ccncc4)NC(=O)[C@H](CC(N)=O)NC(=O)[C@H](CCC(=O)O)N(C)C(=O)[C@H](Cc4c[nH]c5ccccc45)NC(=O)[C@@H]4CNCCN4C(=O)[C@H](Cc4ccncc4)NC(=O)[C@H](CCC(C)(F)F)NC(=O)[C@@H]4CC[C@@H](C4)NC3=O)c[nH]c12` [SEQ ID NO. 275] (cyclo([4Pal][Trp(7-Cl)][αMeS][Phe(4-COOH)]Y[Sar][Trp(βS-Me,7-OMe)][X1][Nle(5,5-F2)][4Pal][Pip(4-aza)]W[NMeE]N)), the pKd on human TNFR2 ECD protein is less than 6.00; in assay [1], 9.52. In assay [2], the pIC50 is 8.85.
